From patent US20260325685A1, “Radiopharmaceutical Compositions Targeting Carbonic Anhydrase IX and Uses Thereof” (RayzeBio, Inc., priority 2023, published 2026)
Read-outs that look alike come from different tables or passages of the source.

Columns and labels:
human CA-IX = target: T1, human CA-IX (Homo sapiens, UniProt Q16790); assay: Surface Plasmon Resonance (SPR) binding kinetics to recombinant human CA-IX (Biacore 8K, single-cycle kinetics, 1:1 binding model)
T1 construct: purchased Acro CA9-H82E3
Method: (§1) G1. Surface Plasmon Resonance Assay Conditions for hCA-IX and hCA-XII
(§2) Surface Plasmon Resonance (SPR) experiments were conducted on a Biacore 8K instrument (Cytiva, Marlborough, MA) to determine the binding kinetics of the compound to recombinant human CA-IX (Acro, CA9-H82E3) and CA-XII (Creative BioMart, CA12-261H) proteins. The ligands were diluted to 10 μg/mL in PBS-P+ buffer (20 mM phosphate buffer, pH 7.4, with 2.7 mM KCl, 137 mM NaCl, and 0.05% Tween 20) and captured on Series S Streptavidin Sensor Chips (Cytiva, 29699621) to 1200-1800 response units (RU) using a flow rate of 5 μL/min and injection times of 180 seconds for human CA-IX and 75 seconds for human CA-XII. Analyte binding was evaluated using a single-cycle kinetics method over 9 analyte concentrations (100-0.39 nM) in PBS-P+ buffer with 1% DMSO using a 50 μL/min. flow rate, 120 second association time, and 1200 second dissociation time. The flow cell temperature was set to 25° C. Analyte binding curves were fit to a 1:1 binding kinetic model in Biacore Insight Evaluation software (version 4.0.8.20368) following reference flow cell subtraction and DMSO correction to derive the association and dissociation binding constants.

human CA-XII = target: T2, human CA-XII (Homo sapiens, UniProt O43570); assay: Surface Plasmon Resonance (SPR) binding kinetics to recombinant human CA-XII (Biacore 8K, single-cycle kinetics, 1:1 binding model)
T2 construct: purchased Creative BioMart CA12-261H
T2 sequence (O43570 25-354): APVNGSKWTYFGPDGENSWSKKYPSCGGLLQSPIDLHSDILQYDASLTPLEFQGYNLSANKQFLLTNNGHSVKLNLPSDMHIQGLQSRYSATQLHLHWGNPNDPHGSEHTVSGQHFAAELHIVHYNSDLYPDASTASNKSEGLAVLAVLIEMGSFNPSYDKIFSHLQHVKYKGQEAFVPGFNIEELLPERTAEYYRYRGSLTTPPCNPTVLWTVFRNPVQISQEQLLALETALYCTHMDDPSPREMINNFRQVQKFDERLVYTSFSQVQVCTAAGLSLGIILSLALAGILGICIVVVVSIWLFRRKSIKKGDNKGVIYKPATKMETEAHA
Method: as §1, §2

[1] = Chelated Metal: Lu-175; SPR, 25° C., pH 7.4; read-out: CAIX KD
[2] = Chelated Metal: Lu-175, 25° C., pH 7.4, read-out: CAXII KD

| SMILES | Kd (human CA-IX; read-out: CAIX KD; Chelated Metal: Lu-175; SPR, 25° C., pH 7.4) [nM] | Kd (human CA-XII; read-out: CAXII KD, Chelated Metal: Lu-175, 25° C., pH 7.4) [nM] | Kd (human CA-IX; [1]) [nM] | Kd (human CA-XII; [2]) [nM] |
| --- | --- | --- | --- | --- |
| CC(CCC(=O)N[C@@H](CC(=O)N[C@@H](CC(=O)N1CCN(C(=O)CN2CCN(CC(=O)O)CCN(CC(=O)O)CCN(CC(=O)O)CC2)C[C@H]1C(=O)NCCn1cc(C23CC(C(=O)Nc4nnc(S(N)(=O)=O)s4)(C2)C3)nn1)C(=O)O)C(=O)O)(c1ccc(O)cc1)c1ccc(O)cc1.[Lu+3] [Compound 106] | < 1 | 2.5 to 10 | – | – |
| CC(CCC(=O)N[C@@H](CC(=O)N[C@@H](CC(=O)N1CCN(C(=O)CN2CCN(CC(=O)O)CCN(CC(=O)O)CCN(CC(=O)O)CC2)CC1C(=O)NCCn1cc(C23CCC(C(=O)Nc4nnc(S(N)(=O)=O)s4)(CC2)C3)nn1)C(=O)O)C(=O)O)(c1ccc(O)cc1)c1ccc(O)cc1.[Lu+3] (some centres unmarked) [Compound 107.1] | – | – | < 1 | < 1 |
| CC(CCC(=O)N[C@@H](CC(=O)N[C@@H](CC(=O)N1CCN(C(=O)CN2CCN(CC(=O)O)CCN(CC(=O)O)CCN(CC(=O)O)CC2)C[C@H]1C(=O)NCCn1cc(C23CCC(C(=O)Nc4nnc(S(N)(=O)=O)s4)(CC2)C3)nn1)C(=O)O)C(=O)O)(c1ccc(O)cc1)c1ccc(O)cc1.[Lu+3] [Compound 107.2] | – | – | < 1 | < 1 |
| CC(CCC(=O)N[C@@H](CC(=O)N[C@@H](CC(=O)N1CCN(C(=O)CN2CCN(CC(=O)O)CCN(CC(=O)O)CCN(CC(=O)O)CC2)C[C@@H]1C(=O)NCCn1cc(C23CC(C(=O)Nc4nnc(S(N)(=O)=O)s4)(C2)C3)nn1)C(=O)O)C(=O)O)(c1ccc(O)cc1)c1ccc(O)cc1.[Lu+3] [Compound 107.3] | – | – | 1 to 2.5 | > 10 |
| CC(CCC(=O)N1CCC(C(=O)O)(C(=O)NCC(=O)N2CCN(C(=O)CN3CCN(CC(=O)O)CCN(CC(=O)O)CCN(CC(=O)O)CC3)C[C@@H]2C(=O)NCCn2cc(C34CC(C(=O)Nc5nnc(S(N)(=O)=O)s5)(C3)C4)nn2)CC1)(c1ccc(O)cc1)c1ccc(O)cc1.[Lu+3] [Compound 107.4] | – | – | 1 to 2.5 | > 10 |
| CC(CCC(=O)N[C@@H](CC(=O)N[C@@H](CC(=O)N1CCN(C(=O)CN2CCN(CC(=O)O)CCN(CC(=O)O)CCN(CC(=O)O)CC2)C[C@H]1C(=O)NCCn1cc(C23CCC(C(=O)Nc4nnc(S(N)(=O)=O)s4)(C2)C3)nn1)C(=O)O)C(=O)O)(c1ccc(O)cc1)c1ccc(O)cc1.[Lu+3] [Compound 107.5] | – | – | < 1 | < 1 |
| CC(CCCC(=O)N1CCC(C(=O)O)(C(=O)NCC(=O)N2CCN(C(=O)CN3CCN(CC(=O)O)CCN(CC(=O)O)CCN(CC(=O)O)CC3)C[C@@H]2C(=O)NCCn2cc(C34CC(C(=O)Nc5nnc(S(N)(=O)=O)s5)(C3)C4)nn2)CC1)(c1ccc(O)cc1)c1ccc(O)cc1.[Lu+3] [Compound 107.6] | – | – | < 1 | > 10 |
| NS(=O)(=O)c1nnc(NC(=O)C23CCC(c4cn(CCNC(=O)[C@@H]5CN(C(=O)CN6CCN(CC(=O)O)CCN(CC(=O)O)CCN(CC(=O)O)CC6)CCN5C(=O)CNC(=O)C5(C(=O)O)CCN(C(=O)CCCc6ccc(O)cc6)CC5)nn4)(CC2)CC3)s1.[Lu+3] [Compound 107.7] | – | – | < 1 | 1 to 2.5 |
| CC(CCC(=O)N1CCOC[C@H]1C(=O)N[C@@H](CC(=O)N1CCN(C(=O)CN2CCN(CC(=O)O)CCN(CC(=O)O)CCN(CC(=O)O)CC2)C[C@@H]1C(=O)NCCn1cc(C23CC(C(=O)Nc4nnc(S(N)(=O)=O)s4)(C2)C3)nn1)C(=O)O)(c1ccc(O)cc1)c1ccc(O)cc1.[Lu+3] [Compound 107.8] | – | – | 1 to 2.5 | > 10 |
| CC(CCCC(=O)N1CCC(C(=O)O)(C(=O)NCC(=O)N2CCN(C(=O)CN3CCN(CC(=O)O)CCN(CC(=O)O)CCN(CC(=O)O)CC3)C[C@H]2C(=O)NCCn2cc(C34CCC(C(=O)Nc5nnc(S(N)(=O)=O)s5)(CC3)CC4)nn2)CC1)(c1ccc(O)cc1)c1ccc(O)cc1.[Lu+3] [Compound 107.9] | – | – | < 1 | 1 to 2.5 |
| NS(=O)(=O)c1nnc(NC(=O)C23CCC(c4cn(CCNC(=O)[C@@H]5CN(C(=O)CN6CCN(CC(=O)O)CCN(CC(=O)O)CCN(CC(=O)O)CC6)CCN5C(=O)CNC(=O)C5(C(=O)O)CCN(C(=O)CCC6CCCCC6)CC5)nn4)(CC2)CC3)s1.[Lu+3] [Compound 107.10] | – | – | < 1 | < 1 |
| CC(CCC(=O)N[C@@H](CCC(=O)N1CCN(C(=O)CN2CCN(CC(=O)O)CCN(CC(=O)O)CCN(CC(=O)O)CC2)C[C@@H]1C(=O)NCCn1cc(C23CC(C(=O)Nc4nnc(S(N)(=O)=O)s4)(C2)C3)nn1)C(=O)O)(c1ccc(O)cc1)c1ccc(O)cc1.[Lu+3] [Compound 107.11] | – | – | < 1 | > 10 |
| CC(CCCC(=O)N1CCC(C(=O)O)(C(=O)NCC(=O)N2CCN(C(=O)CN3CCN(CC(=O)O)CCN(CC(=O)O)CCN(CC(=O)O)CC3)C[C@@H]2C(=O)NCCn2cc(C34CC(C(=O)Nc5nnc(S(N)(=O)=O)s5)(C3)C4)nn2)CC1)(c1ccc(O)cc1)c1ccc(O)cc1.[Lu+3] [Compound 107.12] | – | – | 1 to 2.5 | > 10 |
| CC(CCC(=O)N[C@@H](CC(=O)N[C@@H](CCC(=O)N1CCN(C(=O)CN2CCN(CC(=O)O)CCN(CC(=O)O)CCN(CC(=O)O)CC2)C[C@@H]1C(=O)NCCn1cc(C23CC(C(=O)Nc4nnc(S(N)(=O)=O)s4)(C2)C3)nn1)C(=O)O)C(=O)O)(c1ccc(O)cc1)c1ccc(O)cc1.[Lu+3] [Compound 107.13] | – | – | 1 to 2.5 | > 10 |
| CC(CCC(=O)N[C@@H](CC(=O)N[C@@H](CCC(=O)N1CCN(C(=O)CN2CCN(CC(=O)O)CCN(CC(=O)O)CCN(CC(=O)O)CC2)C[C@@H]1Cn1cc(C23CC(C(=O)Nc4nnc(S(N)(=O)=O)s4)(C2)C3)nn1)C(=O)O)C(=O)O)(c1ccc(O)cc1)c1ccc(O)cc1.[Lu+3] [Compound 107.14] | – | – | < 1 | < 1 |
| CCCCNc1c(F)c(S(N)(=O)=O)c(F)c(F)c1S(=O)(=O)CCOCc1cn(CCNC(=O)[C@H]2CN(C(=O)CN3CCN(CC(=O)O)CCN(CC(=O)O)CCN(CC(=O)O)CC3)CCN2C(=O)C[C@H](NC(=O)[C@@H]2COCCN2C(=O)CCC(C)(c2ccc(O)cc2)c2ccc(O)cc2)C(=O)O)nn1.[Lu+3] [Compound 107.15] | – | – | 1 to 2.5 | > 10 |
| NS(=O)(=O)c1nnc(NC(=O)C23CC(c4cn(CCNC(=O)[C@H]5CN(C(=O)CN6CCN(CC(=O)O)CCN(CC(=O)O)CCN(CC(=O)O)CC6)CCN5C(=O)CC[C@H](NC(=O)Cc5n[nH]c6ccccc56)C(=O)O)nn4)(C2)C3)s1.[Lu+3] [Compound 107.16] | – | – | 1 to 2.5 | 2.5 to 10 |
| NS(=O)(=O)c1nnc(NC(=O)C23CC(c4cn(CCNC(=O)[C@H]5CN(C(=O)CN6CCN(CC(=O)O)CCN(CC(=O)O)CCN(CC(=O)O)CC6)CCN5C(=O)CC[C@H](NC(=O)c5n[nH]c6ccccc56)C(=O)O)nn4)(C2)C3)s1.[Lu+3] [Compound 107.17] | – | – | < 1 | 1 to 2.5 |
| NS(=O)(=O)c1nnc(NC(=O)C23CC(c4cn(CCNC(=O)[C@H]5CN(C(=O)CN6CCN(CC(=O)O)CCN(CC(=O)O)CCN(CC(=O)O)CC6)CCN5C(=O)[C@@H]5COCCN5C(=O)Cc5n[nH]c6ccccc56)nn4)(C2)C3)s1.[Lu+3] [Compound 107.18] | – | – | 2.5 to 10 | > 10 |
| CC(CCC(=O)N1CCOC[C@H]1C(=O)N[C@@H](CC(=O)N1CCN(C(=O)CN2CCN(CC(=O)O)CCN(CC(=O)O)CCN(CC(=O)O)CC2)C[C@@H]1C(=O)NCCn1cc(C23CC(C(=O)Nc4nnc(S(N)(=O)=O)s4)(C2)C3)nn1)C(N)=O)(c1ccc(O)cc1)c1ccc(O)cc1.[Lu+3] [Compound 107.19] | – | – | 1 to 2.5 | > 10 |
| CC(CCC(=O)N[C@H](CC(=O)N[C@H](CC(=O)N1CCN(C(=O)CN2CCN(CC(=O)O)CCN(CC(=O)O)CCN(CC(=O)O)CC2)C[C@H]1C(=O)NCCn1cc(C23CC(C(=O)Nc4nnc(S(N)(=O)=O)s4)(C2)C3)nn1)C(=O)O)C(=O)O)(c1ccc(O)cc1)c1ccc(O)cc1.[Lu+3] [Compound 107.21] | – | – | 1 to 2.5 | > 10 |
| CC(CCC(=O)N[C@@H](CC(=O)N[C@@H](CC(=O)N1CCN(C(=O)CN2CCN(CC(=O)O)CCN(CC(=O)O)CCN(CC(=O)O)CC2)C[C@H]1C(=O)NCCn1cc(-c2ccc(C(=O)Nc3nnc(S(N)(=O)=O)s3)cc2)nn1)C(=O)O)C(=O)O)(c1ccc(O)cc1)c1ccc(O)cc1.[Lu+3] [Compound 107.22] | – | – | 1 to 2.5 | > 10 |
| CC(CCCC(=O)N1CCC(C(=O)O)(C(=O)NCC(=O)N2CCN(C(=O)CN3CCN(CC(=O)O)CCN(CC(=O)O)CCN(CC(=O)O)CC3)C[C@@H]2C(=O)N[C@@H](Cn2cc(C34CC(C(=O)Nc5nnc(S(N)(=O)=O)s5)(C3)C4)nn2)C(=O)O)CC1)(c1ccc(O)cc1)c1ccc(O)cc1.[Lu+3] [Compound 107.23] | – | – | < 1 | > 10 |
| CC(CCCC(=O)N1CCC(C(=O)O)(C(=O)NCC(=O)N2CCN(C(=O)CN3CCN(CC(=O)O)CCN(CC(=O)O)CCN(CC(=O)O)CC3)C[C@@H]2C(=O)NCCn2cc(C34CCC(C(=O)Nc5nnc(S(N)(=O)=O)s5)(C3)C4)nn2)CC1)(c1ccc(O)cc1)c1ccc(O)cc1.[Lu+3] [Compound 107.24] | – | – | 1 to 2.5 | 2.5 to 10 |
| CN1CCN(C(=O)CCCC(C)(c2ccc(O)cc2)c2ccc(O)cc2)[C@H](C(=O)N[C@@H](CC(=O)N2CCN(C(=O)CN3CCN(CC(=O)O)CCN(CC(=O)O)CCN(CC(=O)O)CC3)C[C@@H]2C(=O)NCCn2cc(C34CC(C(=O)Nc5nnc(S(N)(=O)=O)s5)(C3)C4)nn2)C(=O)O)C1.[Lu+3] [Compound 107.25] | – | – | < 1 | > 10 |
